Assay results: the supplement of paper PMC10307832

What was measured:
Experiment in all cases: relative viability (nuclei count vs DMSO), 5 days (fraction); higher = more cells survive
Carfilzomib + Olaparib = compound: CC(C)C[C@H](NC(=O)[C@H](CCc1ccccc1)NC(=O)CN1CCOCC1)C(=O)N[C@@H](Cc1ccccc1)C(=O)N[C@@H](CC(C)C)C(=O)[C@@]1(C)CO1 [Carfilzomib] + O=C(c1cc(Cc2n[nH]c(=O)c3ccccc23)ccc1F)N1CCN(C(=O)C2CC2)CC1 [Olaparib] (partner 8 µM)
Method in brief: (§1)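 Each reported value is a median over duplicate plates. It expresses relative viability: treated-well nuclei count divided by vehicle-well nuclei count. Lung cancer cell lines in 1536-well plates were dosed by pin tool a day after seeding, alone with one drug or with a fixed anchor-drug dose plus five library-drug doses (not always all listed) in √10 steps, and nuclei were counted after 5 days.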

Crizotinib + Foretinib = compound: C[C@@H](Oc1cc(-c2cnn(C3CCNCC3)c2)cnc1N)c1c(Cl)ccc(F)c1Cl [Crizotinib] + COc1cc2c(Oc3ccc(NC(=O)C4(C(=O)Nc5ccc(F)cc5)CC4)cc3F)ccnc2cc1OCCCN1CCOCC1 [Foretinib] (partner 0.25 µM)
Method in brief: as §1

Crizotinib + Vorinostat = compound: C[C@@H](Oc1cc(-c2cnn(C3CCNCC3)c2)cnc1N)c1c(Cl)ccc(F)c1Cl [Crizotinib] + O=C(CCCCCCC(=O)Nc1ccccc1)NO [Vorinostat] (partner 1 µM)
Method in brief: as §1

Carfilzomib + Pictilisib = compound: CC(C)C[C@H](NC(=O)[C@H](CCc1ccccc1)NC(=O)CN1CCOCC1)C(=O)N[C@@H](Cc1ccccc1)C(=O)N[C@@H](CC(C)C)C(=O)[C@@]1(C)CO1 [Carfilzomib] + CS(=O)(=O)N1CCN(Cc2cc3nc(-c4cccc5[nH]ncc45)nc(N4CCOCC4)c3s2)CC1 [Pictilisib] (partner 1 µM)
Method in brief: as §1

Cell Line	relative viability (Carfilzomib + Olaparib; first compound 0.001 µM)	relative viability (Carfilzomib + Olaparib; first compound 0.003162 µM)	relative viability (Carfilzomib + Olaparib; first compound 0.01 µM)	relative viability (Carfilzomib + Olaparib; first compound 0.03162 µM)	relative viability (Carfilzomib + Olaparib; first compound 0.1 µM)	relative viability (Crizotinib + Foretinib; first compound 0.01 µM)	relative viability (Crizotinib + Foretinib; first compound 0.03162 µM)	relative viability (Crizotinib + Foretinib; first compound 0.1 µM)	relative viability (Crizotinib + Foretinib; first compound 0.3162 µM)	relative viability (Crizotinib + Foretinib; first compound 1 µM)	relative viability (Crizotinib + Vorinostat; first compound 0.01 µM)	relative viability (Crizotinib + Vorinostat; first compound 0.03162 µM)	relative viability (Crizotinib + Vorinostat; first compound 0.1 µM)	relative viability (Crizotinib + Vorinostat; first compound 0.3162 µM)	relative viability (Crizotinib + Vorinostat; first compound 1 µM)	relative viability (Carfilzomib + Pictilisib; first compound 0.001 µM)	relative viability (Carfilzomib + Pictilisib; first compound 0.003162 µM)	relative viability (Carfilzomib + Pictilisib; first compound 0.01 µM)	relative viability (Carfilzomib + Pictilisib; first compound 0.03162 µM)	relative viability (Carfilzomib + Pictilisib; first compound 0.1 µM)
H3255	0.565	0.609	0.668	0.402	0.235	0.849	0.866	1.11	0.581	0.877	0.782	0.841	0.765	0.784	0.999	0.433	0.52	0.426	0.423	0.177
HARA	1.25	0.943	1.2	0.0637	0.0917	0.924	0.705	0.858		0.877	0.494	0.491	0.532	0.54	0.523	0.422	0.609	0.385	0.0609	0.0598
HCC-15	0.73	0.771	0.75	0.551	0.166	1.07	1	1.03		0.987	0.802	0.875	0.926	0.847	0.875	0.596	0.863	0.784	0.522	0.156
HCC-44	1.07	0.975	0.985	1.03	0.637						1.03	1.13	1.18	1.01	1.14	0.506	0.674	0.57	0.654	0.166
HCC-78	0.733	0.881	0.844	0.552	0.233		0.685	0.566	0.592	0.599	0.418	0.388	0.402	0.336	0.437	0.207	0.194	0.236	0.134	0.117
HCC-366	0.364	0.39	0.362	0.311	0.0358	0.913	0.841	0.893		0.95	0.336	0.423	0.31		0.403	0.129	0.175	0.17	0.312	0.0504
HCC-827	0.671	0.619	0.712	0.643	0.108	0.959	0.967	0.937	0.971	1.05	0.873	0.602	0.917	0.884		1.06	1.08	1.06	1.05	0.487
HOP-62	0.399	0.397	0.443		0.0477	1.09	1.09	1.07	1.07	1.17	0.638	0.672	0.613	0.3	0.685	0.569	1.11	0.467	0.0638	0.0695
IA-LM	1.06	0.779	0.738	0.0714	0.0425	1.07	1.05	1.18	1.21	1.1	0.977	0.958	1.07	0.949	0.907	0.293	0.305	0.292	0.0283	0.0095
NCI-H522	0.586	0.778	0.694	0.489	0.314						0.851	1.03	0.803	0.877	0.867					
NCI-H1299	0.964	0.998	0.933	0.191	0.116	1.03	1.07	1.04	1.08	1.06						0.735	0.838	0.6	0.0711	0.0334
NCI-H1563						0.93		0.888	0.904	1.05						0.615	0.62	0.689	0.595	0.548
NCI-H1623						0.736	0.92	0.829	0.873	0.801										
NCI-H1648	1.07	0.563	0.745	0.922	0.189							0.412	0.341	0.506	0.619					
NCI-H1703	0.44	0.493	0.124	0.1	0.129	0.362	0.295	0.358	0.398	0.331						0.202	0.3	0.17	0.16	0.144
NCI-H1792		0.41	0.633	0.393	0.0411											0.291	0.313	0.282	0.24	0.199
NCI-H2342	0.424	0.541	0.499	0.497	0.317	1.01	1.04	1.06	0.978	1.14	0.799	0.844	0.714	0.713	0.814					
SW 900		0.756	0.323	0.174	0.168	0.935	0.877	0.823	1.01	0.742	0.422	0.615	0.511	0.481	0.712					
